{"source": "PubChem BioAssay (NCI)", "assay_in_all_cases": "NCI-60 cell line screen, 48 h", "key": {"[1]": {"test_system": "HCC-2998 colon"}, "[2]": {"test_system": "SK-MEL-5 melanoma"}, "[3]": {"test_system": "LOX IMVI melanoma"}, "[4]": {"test_system": "TK-10 renal"}, "[5]": {"test_system": "ACHN renal"}, "[6]": {"test_system": "EKVX NSCLC"}, "[7]": {"test_system": "COLO 205 colon"}, "[8]": {"test_system": "PC-3 prostate"}, "[9]": {"test_system": "CAKI-1 renal"}, "[10]": {"test_system": "HCT-116 colon"}}, "note": "“And” between values parts separate entries of the source, which are not always exact repeats. Identical values can stand only once.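 Where inhibition never reached the appropriate level, the endpoint shown equals the highest concentration tested. Otherwise, values were interpolated linearly from a five-concentration, 48-hour dose response in 96-well plates. GI50 is the concentration that inhibits growth by half. TGI is the concentration that stops growth completely.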"}
{"compound": "COC(=O)[C@@H]1c2cc3c(c(O)c2[C@@H](OC2OC(C)C(OC)C(C)(OC)C2OC)C[C@]1(C)O)C(=O)c1c(O)cc2c(c1C3=O)O[C@H]1O[C@]2(C)[C@H](O)[C@@H](N(C)C)[C@@H]1O", "note": "(stereo partly specified)", "values": [{"measurement": "TGI", "setting": "[1]", "result": "0.0305 µM and 0.0223 µM"}, {"measurement": "TGI", "setting": "[2]", "result": 0.0278, "unit": "µM"}, {"measurement": "TGI", "setting": "[3]", "result": "0.152 µM and 1.22 µM"}, {"measurement": "GI50", "setting": "[4]", "result": 0.0386, "unit": "µM"}, {"measurement": "GI50", "setting": "[5]", "result": 0.0114, "unit": "µM"}, {"measurement": "TGI", "setting": "[5]", "result": "0.951 µM and 5.37 µM"}, {"measurement": "GI50", "setting": "[6]", "result": 0.103, "unit": "µM"}, {"measurement": "TGI", "setting": "[7]", "result": 0.0351, "unit": "µM"}, {"measurement": "TGI", "setting": "[8]", "result": 0.297, "unit": "µM"}]}
{"compound": "COc1ccc(/C=C\\c2cc(OC)c(OC)c(OC)c2)cc1OCC(=O)Nc1nc2ccc(F)cc2s1", "values": [{"measurement": "GI50", "setting": "[1]", "result": "> 100", "unit": "µM"}, {"measurement": "TGI", "setting": "[1]", "result": "> 100", "unit": "µM"}, {"measurement": "GI50", "setting": "[2]", "result": 1.76, "unit": "µM"}, {"measurement": "TGI", "setting": "[2]", "result": 8.96, "unit": "µM"}, {"measurement": "GI50", "setting": "[3]", "result": 3.23, "unit": "µM"}, {"measurement": "TGI", "setting": "[3]", "result": "> 100", "unit": "µM"}, {"measurement": "GI50", "setting": "[9]", "result": 2.78, "unit": "µM"}, {"measurement": "TGI", "setting": "[9]", "result": "> 100", "unit": "µM"}, {"measurement": "GI50", "setting": "[4]", "result": 9.89, "unit": "µM"}, {"measurement": "TGI", "setting": "[4]", "result": "> 100", "unit": "µM"}, {"measurement": "GI50", "setting": "[5]", "result": 3.33, "unit": "µM"}, {"measurement": "TGI", "setting": "[5]", "result": "> 100", "unit": "µM"}, {"measurement": "GI50", "setting": "[10]", "result": 4.48, "unit": "µM"}, {"measurement": "TGI", "setting": "[10]", "result": "> 100", "unit": "µM"}, {"measurement": "GI50", "setting": "[6]", "result": 5.72, "unit": "µM"}, {"measurement": "TGI", "setting": "[6]", "result": "> 100", "unit": "µM"}, {"measurement": "GI50", "setting": "[7]", "result": 7.78, "unit": "µM"}, {"measurement": "TGI", "setting": "[7]", "result": "> 100", "unit": "µM"}, {"measurement": "GI50", "setting": "[8]", "result": 6.74, "unit": "µM"}, {"measurement": "TGI", "setting": "[8]", "result": "> 100", "unit": "µM"}]}
{"compound": "Oc1c(Cl)cc(Cl)c(Cl)c1CNCCNCc1c(O)c(Cl)cc(Cl)c1Cl", "values": [{"measurement": "GI50", "setting": "[1]", "result": 2.69, "unit": "µM"}, {"measurement": "TGI", "setting": "[1]", "result": "> 50", "unit": "µM"}, {"measurement": "GI50", "setting": "[2]", "result": 1.35, "unit": "µM"}, {"measurement": "TGI", "setting": "[2]", "result": 8.06, "unit": "µM"}, {"measurement": "GI50", "setting": "[3]", "result": 0.357, "unit": "µM"}, {"measurement": "TGI", "setting": "[3]", "result": 5.19, "unit": "µM"}, {"measurement": "GI50", "setting": "[9]", "result": 1.09, "unit": "µM"}, {"measurement": "TGI", "setting": "[9]", "result": 9.23, "unit": "µM"}, {"measurement": "GI50", "setting": "[4]", "result": 2.02, "unit": "µM"}, {"measurement": "TGI", "setting": "[4]", "result": 11.2, "unit": "µM"}, {"measurement": "GI50", "setting": "[5]", "result": 0.549, "unit": "µM"}, {"measurement": "TGI", "setting": "[5]", "result": 7.22, "unit": "µM"}, {"measurement": "GI50", "setting": "[10]", "result": 0.731, "unit": "µM"}, {"measurement": "TGI", "setting": "[10]", "result": 8.52, "unit": "µM"}, {"measurement": "GI50", "setting": "[6]", "result": 1.32, "unit": "µM"}, {"measurement": "TGI", "setting": "[6]", "result": 10.2, "unit": "µM"}, {"measurement": "GI50", "setting": "[7]", "result": 1.09, "unit": "µM"}, {"measurement": "TGI", "setting": "[7]", "result": "> 50", "unit": "µM"}, {"measurement": "GI50", "setting": "[8]", "result": 1.92, "unit": "µM"}, {"measurement": "TGI", "setting": "[8]", "result": 11.1, "unit": "µM"}]}
{"compound": "CC(C)(C)C(=O)OCOP(=O)(NCc1ccccc1)C1CCCN(O)C1=O", "note": "(stereo unspecified)", "values": [{"measurement": "GI50", "setting": "[1]", "result": 2.37, "unit": "µM"}, {"measurement": "TGI", "setting": "[1]", "result": 12, "unit": "µM"}, {"measurement": "GI50", "setting": "[2]", "result": 1.76, "unit": "µM"}, {"measurement": "TGI", "setting": "[2]", "result": 4.33, "unit": "µM"}, {"measurement": "GI50", "setting": "[3]", "result": 2.85, "unit": "µM"}, {"measurement": "TGI", "setting": "[3]", "result": 15.8, "unit": "µM"}, {"measurement": "GI50", "setting": "[9]", "result": 3.5, "unit": "µM"}, {"measurement": "TGI", "setting": "[9]", "result": "> 100", "unit": "µM"}, {"measurement": "GI50", "setting": "[4]", "result": 3.12, "unit": "µM"}, {"measurement": "TGI", "setting": "[4]", "result": 43.2, "unit": "µM"}, {"measurement": "GI50", "setting": "[5]", "result": 2.5, "unit": "µM"}, {"measurement": "TGI", "setting": "[5]", "result": 67.4, "unit": "µM"}, {"measurement": "GI50", "setting": "[10]", "result": 2.84, "unit": "µM"}, {"measurement": "TGI", "setting": "[10]", "result": 14.4, "unit": "µM"}, {"measurement": "GI50", "setting": "[6]", "result": 3.91, "unit": "µM"}, {"measurement": "TGI", "setting": "[6]", "result": 78.8, "unit": "µM"}, {"measurement": "GI50", "setting": "[7]", "result": 2.47, "unit": "µM"}, {"measurement": "TGI", "setting": "[7]", "result": 13.7, "unit": "µM"}, {"measurement": "GI50", "setting": "[8]", "result": 5.08, "unit": "µM"}, {"measurement": "TGI", "setting": "[8]", "result": "> 100", "unit": "µM"}]}
{"compound": "Nc1nc(/C=C\\c2ccc([N+](=O)[O-])s2)nc(N2CCN(c3ccccc3)CC2)n1", "values": [{"measurement": "GI50", "setting": "[1]", "result": 22.2, "unit": "µM"}, {"measurement": "TGI", "setting": "[1]", "result": 44.8, "unit": "µM"}, {"measurement": "GI50", "setting": "[2]", "result": 0.157, "unit": "µM"}, {"measurement": "GI50", "setting": "[3]", "result": 15.7, "unit": "µM"}, {"measurement": "TGI", "setting": "[3]", "result": 29.1, "unit": "µM"}, {"measurement": "GI50", "setting": "[9]", "result": 18.1, "unit": "µM"}, {"measurement": "TGI", "setting": "[9]", "result": 39.1, "unit": "µM"}, {"measurement": "GI50", "setting": "[4]", "result": 72.1, "unit": "µM"}, {"measurement": "TGI", "setting": "[4]", "result": "> 100", "unit": "µM"}, {"measurement": "GI50", "setting": "[5]", "result": 19, "unit": "µM"}, {"measurement": "TGI", "setting": "[5]", "result": 41.4, "unit": "µM"}, {"measurement": "GI50", "setting": "[10]", "result": 17.2, "unit": "µM"}, {"measurement": "TGI", "setting": "[10]", "result": 31.5, "unit": "µM"}, {"measurement": "GI50", "setting": "[6]", "result": 32.2, "unit": "µM"}, {"measurement": "TGI", "setting": "[6]", "result": "> 100", "unit": "µM"}, {"measurement": "GI50", "setting": "[7]", "result": 15.4, "unit": "µM"}, {"measurement": "TGI", "setting": "[7]", "result": 32.1, "unit": "µM"}, {"measurement": "GI50", "setting": "[8]", "result": 21.9, "unit": "µM"}, {"measurement": "TGI", "setting": "[8]", "result": 63.7, "unit": "µM"}]}
{"compound": "Cc1c(C)n(CCCN2CCN(C)CC2)c2ccc(Oc3cccc(C(=O)N4CCN(CCc5ccc(F)cc5)CC4)c3)cc12", "values": [{"measurement": "GI50", "setting": "[1]", "result": 1.81, "unit": "µM"}, {"measurement": "TGI", "setting": "[1]", "result": 3.37, "unit": "µM"}, {"measurement": "GI50", "setting": "[2]", "result": 1.71, "unit": "µM"}, {"measurement": "TGI", "setting": "[2]", "result": 3.08, "unit": "µM"}, {"measurement": "GI50", "setting": "[3]", "result": 1.75, "unit": "µM"}, {"measurement": "TGI", "setting": "[3]", "result": 3.19, "unit": "µM"}, {"measurement": "GI50", "setting": "[9]", "result": 1.77, "unit": "µM"}, {"measurement": "TGI", "setting": "[9]", "result": 3.46, "unit": "µM"}, {"measurement": "GI50", "setting": "[4]", "result": 1.62, "unit": "µM"}, {"measurement": "TGI", "setting": "[4]", "result": 3.23, "unit": "µM"}, {"measurement": "GI50", "setting": "[5]", "result": 1.67, "unit": "µM"}, {"measurement": "TGI", "setting": "[5]", "result": 3.06, "unit": "µM"}, {"measurement": "GI50", "setting": "[6]", "result": 1.65, "unit": "µM"}, {"measurement": "TGI", "setting": "[6]", "result": 3.12, "unit": "µM"}, {"measurement": "GI50", "setting": "[7]", "result": 1.97, "unit": "µM"}, {"measurement": "TGI", "setting": "[7]", "result": 3.8, "unit": "µM"}, {"measurement": "GI50", "setting": "[8]", "result": 1.06, "unit": "µM"}, {"measurement": "TGI", "setting": "[8]", "result": 2.61, "unit": "µM"}]}
